Values quoted from earlier work as cited in patent US20110086898A1, “PYRAZOLOOXAZOLE COMPOUND” (Eisai R&D Management Co., Ltd., priority 2009, published 2011).

What was measured:
[1] = tested on: high-anxiety rats; conditions: particularly in high-anxiety rats; Journal of Psychiatric Research, 36:197-208 (2002); cited from earlier work
[2] = tested on: depression, depressive symptoms, anxiety; conditions: Journal of Psychiatric Research, 34:171-181 (2000); cited from earlier work
[3] = tested on: rats; conditions: European Journal of Neuroscience, 13:373-380 (2001); cited from earlier work
[4] = tested on: hypertension induced by intraventricular administration of CRF; conditions: Brain Research, 881: 204-207 (2000); cited from earlier work
[5] = tested on: hippocampal tau phosphorylation; conditions: Journal of Neuroscience, 27 (24): 6552-6562 (2007); cited from earlier work
[6] = tested on: learning disability following acute stress; conditions: Behavioural Brain Research, 138: 207-213 (2003); cited from earlier work
[7] = tested on: rats; conditions: European Journal of Pharmacology, 492:195-201 (2004); cited from earlier work
[8] = tested on: rats; conditions: Psychopharmacology, 150:317-324 (2000); cited from earlier work
[9] = tested on: naltrexone-induced morphine withdrawal symptoms; conditions: pretreatment; Journal of Neurochemistry, 74: 199-208 (2000); cited from earlier work
[10] = tested on: rats; conditions: Psychopharmacology, 137:184-190 (1998); cited from earlier work
[11] = tested on: gastric emptying retardation after surgery; conditions: Gastroenterology, 125:654-659 (2003); cited from earlier work

Question: Which stress-related sleep disorder [1] does the source give for CCCN(CCC)c1cc(C)nc2c(-c3cnc(N(C)C)cc3C)c(C)nn12 [Example R121919] here?
Answer: Its stress-related sleep disorder is “inhibits”.

Question: What about the “ameliorating depression, depressive symptoms, anxiety” value [2] of the same molecule?
Answer: The value was “effective”.

Question: And the anti-anxiety action [3]?
Answer: The anti-anxiety action was “exhibits an anti-anxiety action”.

Question: With CCCCN(CC)c1nc(C)nc2c1c(C)c(C)n2-c1c(C)cc(C)cc1C [antalarmin] as the molecule, how does the “hypertension induced by intraventricular administration of CRF” value [4] read?
Answer: The value was “inhibits”.

Question: And the “stress-induced hippocampal tau phosphorylation” value [5]?
Answer: Its value is “inhibits”.

Question: Which “learning disability following acute stress” value [6] does the source give for CCCCN(CC)c1nc(C)nc2c1c(C)cn2-c1c(C)cc(C)cc1C [CP-154526] here?
Answer: Its value is “inhibits”.

Question: What about the “anti-depressant and anti-anxiety actions” value [7] of the same molecule?
Answer: The value was “exhibits anti-depressant and anti-anxiety actions”.

Question: And the “recurrence of stress-elicited alcohol-seeking behavior” value [8]?
Answer: Its value is “inhibits”.

Question: What about the “naltrexone-induced morphine withdrawal symptoms” value [9] of the same molecule?
Answer: Its value is “inhibits”.

Question: And the “recurrence of stress-elicited drug (heroin, cocaine)-seeking behavior” value [10]?
Answer: Its value is “inhibits”.

Question: And the “gastric emptying retardation after surgery” value [11]?
Answer: Its value is “recovers”.
